Molecules are shown by their SMILES.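 Test compounds were applied to cells in 96-well plates for 48 hours at 5 doses. At the GI50, growth is halved.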 The source made the active and inactive calls. Cut-off read from the data, not from the text of the source: active = GI50 up to about 1.1 µM and inactive = higher.

What all share (test): NCI-60 cell line screen, 48 h
The subject of assay [1] is HOP-92.
Assay [2] has as its system SNB-19.
Assay [3] relates to SNB-75.
Assay [4] relates to NCI-H522.
The subject of assay [5] is SK-MEL-5.
The subject of assay [6] is IGROV-1.
Assay [7] deals with LXFL 529.
Assay [8] concerns UO-31.
Assay [9] concerns MDA-N.
Assay [10] deals with KM-20L2.
For assay [11], the system named is UACC-62.
Assay [12] concerns BT-549.
For assay [13], the system named is SNB-78.
Assay [14] has as its system Hs-578T.
Assay [15] concerns CAKI-1.
Assay [16] concerns HT-29.
The test system of assay [17] is K562.
In assay [18] the test system is HOP-18.
Assay [19] deals with OVCAR-5.
Assay [20] concerns DMS-114.

Take `COc1cccc2c1C(=O)c1c(O)c3c(c(O)c1C2=O)C[C@@](O)(C(C)=O)C[C@@H]3OC1CC(O)C(O)C(C)O1` (stereo not given in full): the GI50 in assay [1] is 2.1 µM (inactive); in assay [2], 1.09 µM (active); in assay [3] it was 1.62 µM (inactive); in [4], 1.82 µM (inactive); in assay [5], 0.875 µM (active); in assay [6], 3.05 µM (inactive). The GI50 in assay [7] is 2.79 µM (inactive); in assay [8], 1.66 µM (inactive); in [9] it was 8.71 µM (inactive); in assay [10], 2.69 µM (inactive); in assay [11], 1.04 µM (active); in assay [12], 3.33 µM (inactive). Moreover, the GI50 in assay [13] is 4.42 µM (inactive); in assay [14] it was 0.998 µM (active); in [15] it was 0.789 µM (active); in [16], 1.41 µM (inactive); in assay [17], 0.925 µM (active); in [18], 1.39 µM (inactive). Moreover, in [19], the GI50 was 1.04 µM (active).
Take `COc1cc(/N=N\c2ccc(OC)c(S(=O)(=O)O)c2)c(C)cc1/N=N\c1ccc(/C=C/c2ccc(/N=[N+](/[O-])c3ccc(/C=C/c4ccc(/N=N/c5cc(C)c(/N=N\c6ccc(OC)c(S(=O)(=O)O)c6)cc5OC)cc4S(=O)(=O)O)c(S(=O)(=O)O)c3)cc2S(=O)(=O)O)c(S(=O)(=O)O)c1`: the GI50 was > 75.2 µM (inactive) in [1]; > 100 µM (inactive) in [2]; > 100 µM (inactive) in assay [20]; 58.2 µM (inactive) in [3]; > 100 µM (inactive) in assay [4]; > 100 µM (inactive) in assay [5]. Besides, the GI50 is > 100 µM (inactive) in assay [6]; > 100 µM (inactive) in assay [8]; 95.1 µM (inactive) in [10]; > 100 µM (inactive) in assay [11]; > 100 µM (inactive) in [13]; > 100 µM (inactive) in assay [16]. Further, the GI50 in assay [17], in [18] and in assay [19] was > 100 µM (inactive) throughout.
On to `CC1=CC[C@H](C)C(C)(C)C1/C=C/C(C)=C/CC[C@@]1(CO)[C@H](CCCO)/C(=C(/C)C=O)CC[C@]1(C)O` (stereo not given in full), for which the GI50 in assay [1] was < 0.01 µM (active); in assay [2] it was 8.51 µM (inactive); in [4] it was 4.06 µM (inactive); in [5] it was 0.513 µM (active); in [6], 11.7 µM (inactive); in assay [7], 7.62 µM (inactive). Also, the GI50 was 8.45 µM (inactive) in assay [8]; 1.82 µM (inactive) in [10]; 13.2 µM (inactive) in assay [13]; 3.61 µM (inactive) in assay [15]; 2.77 µM (inactive) in assay [16]; 1.31 µM (inactive) in assay [17]. In addition, the GI50 in [18] is 15.5 µM (inactive); in [19], 23.6 µM (inactive).
As for `O=C1[C@@H]2C(c3c(Cl)cccc3Cl)=NO[C@@H]2C(=O)N1c1ccc(Cc2ccc(N3C(=O)[C@H]4C(c5c(Cl)cccc5Cl)=NO[C@H]4C3=O)cc2)cc1`, the GI50 in [1], in assay [20], in [3], in assay [5], in assay [6] and in assay [7] was > 100 µM (inactive) in each case. Besides, the GI50 was 90.6 µM (inactive) in assay [8]; > 100 µM (inactive) in [10]; > 100 µM (inactive) in assay [11]; > 100 µM (inactive) in assay [13]; > 100 µM (inactive) in assay [15]; > 100 µM (inactive) in [16]. Moreover, the GI50 in [17], in [18] and in assay [19] was > 100 µM (inactive) throughout.
`CCOC(=O)C(C(=O)OCC)c1cc(-c2cc3ccccc3o2)oc(=O)c1C#N`: the GI50 in [1] was 3.41 µM (inactive); in [2], 37.3 µM (inactive); in assay [20] it was 26.7 µM (inactive); in [3], 26.2 µM (inactive); in assay [5] it was 32.5 µM (inactive); in assay [6] it was 24.9 µM (inactive). Moreover, the GI50 in assay [7] was 20.4 µM (inactive); in assay [8], 32.2 µM (inactive); in assay [10] it was 19.3 µM (inactive); in assay [13], 18 µM (inactive); in assay [15] it was 17.4 µM (inactive); in [16], 18.6 µM (inactive). In addition, the GI50 in assay [17] is 29 µM (inactive); in [18], 16 µM (inactive); in assay [19] it was 18.5 µM (inactive).
Take `CC(C)=CCC(OC(=O)C=C(C)C)c1cc(O)c2c(c1O)C(=O)C=CC2=O` (stereo not given): the GI50 in assay [1] was 0.469 µM (active); in assay [2], 7.46 µM (inactive); in assay [20], 1.05 µM (active); in [3], 4.98 µM (inactive); in assay [5], 0.883 µM (active); in assay [6], 2.04 µM (inactive). Also, the GI50 in assay [8] is 3.3 µM (inactive); in [10], 1.82 µM (inactive); in assay [11], 0.783 µM (active); in assay [13] it was 2.07 µM (inactive); in assay [15] it was 0.64 µM (active); in assay [16], 1.67 µM (inactive). Also, the GI50 is 0.27 µM (active) in [17], 3.52 µM (inactive) in [18] and 3.89 µM (inactive) in assay [19].
As to `CC(C)CC(N)C(=O)OCN1C(=O)C2C3C=CC(C2C1=O)C1C2C(=O)N(COC(=O)C(N)CC(C)C)C(=O)C2C31` (stereo not given), the GI50 was > 100 µM (inactive) in assay [1]; > 100 µM (inactive) in assay [2]; > 62.1 µM (inactive) in [20]; > 75 µM (inactive) in assay [3]; > 100 µM (inactive) in [4]; > 100 µM (inactive) in [5]. The GI50 in assay [6], in assay [7], in [8], in assay [10], in assay [11] and in assay [13] was > 100 µM (inactive) in each case. In addition, the GI50 in assay [15], in assay [16], in assay [17], in assay [18] and in [19] was > 100 µM (inactive) in each case.
